The test system of one assay is MOLM14 cells. The assay can be described thus: Proliferation assay, spheroid-like growth, MOLM14 (MLL-AF9 rearranged). In kind it is cell-based, human. The following applies: 8 days, confluence as measure of spheroid size, read-out: spheroid assay_OneTime MOLM14 IC50. Summed up:
(§1)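 200 MOLM14 or 300 KO-52 cells/well, ultra-low attachment, compound dilutions, DMSO 0.3%; 8 d, 37 °C, 5% CO2. Read: live-cell imaging confluence (spheroid size) day 8. Absolute IC50, min 0%/max 100% fixed, variable slope.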

The test system of another assay is KO-52 cells. The assay can be described thus: Proliferation assay, spheroid-like growth, KO-52 (MLL wildtype control cell line). Conditions: KO-52 control cells, 8 days, confluence as measure of spheroid size, read-out: spheroid assay_OneTime KO-52 IC50. The format is cell-based, human. Put shortly:
as §1

For assay [1], the target named is T1, menin/MLL (terbium chelate-labeled menin, FITC-MBM1 peptide) (Homo sapiens, UniProt O00255, T541A).
T1 construct: Menin (a.a 1-610-6xhis tag)
T1 sequence (O00255 with tags, fused parts or gaps T541A): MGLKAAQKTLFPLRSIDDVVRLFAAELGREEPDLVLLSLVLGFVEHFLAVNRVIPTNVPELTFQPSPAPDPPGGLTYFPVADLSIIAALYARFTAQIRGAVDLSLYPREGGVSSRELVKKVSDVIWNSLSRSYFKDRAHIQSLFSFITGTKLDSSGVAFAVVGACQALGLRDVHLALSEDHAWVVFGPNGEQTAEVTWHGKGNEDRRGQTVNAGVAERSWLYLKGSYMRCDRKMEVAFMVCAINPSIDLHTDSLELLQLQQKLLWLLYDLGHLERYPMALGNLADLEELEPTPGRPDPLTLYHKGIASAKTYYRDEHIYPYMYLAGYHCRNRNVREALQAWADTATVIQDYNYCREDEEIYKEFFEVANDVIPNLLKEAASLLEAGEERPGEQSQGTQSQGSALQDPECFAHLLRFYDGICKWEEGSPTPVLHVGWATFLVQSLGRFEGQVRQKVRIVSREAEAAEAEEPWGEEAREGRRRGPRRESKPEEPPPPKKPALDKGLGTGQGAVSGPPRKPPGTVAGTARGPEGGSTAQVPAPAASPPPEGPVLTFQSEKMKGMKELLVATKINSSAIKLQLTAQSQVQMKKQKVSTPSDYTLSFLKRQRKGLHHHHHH
The assay is described as follows: Menin/MLL homogenous time-resolved fluorescence (HTRF) assay. In kind it is binding. The following applies: 30 min incubation. Put shortly: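 Tb-cryptate menin (1-610, 6xHis) 200 pM + cmpd, 30 min RT; + FITC-MBM1 75 nM, 15 min RT. 40 mM Tris pH 7.5, 50 mM NaCl, 1 mM DTT, 0.05% Pluronic F-127, 0.5% DMSO. HTRF 520/490; 11-pt 4-fold from 10 μM; IC50 fit.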

Where two headings read alike, the source gives them in different places.

As for `CC(C)[C@H]([C@H]1C[C@H](N2CCC[C@H](C(=O)N(C)C)C2)C1)N1CC2(CCN(c3ncnnc3Oc3ccc(F)cc3-c3cncnc3C3CC3)C2)C1` (single isomer, unassigned) [Compound 52], the IC50 in the assay with MOLM14 cells (Homo sapiens, MOLM-14, 192 h) amounted to 210 nM; in the assay on KO-52 cells (Homo sapiens, 192 h), 14000 nM; in assay [1] it was 0.4 nM.

Consider `CC(=O)N1CC2(CCN([C@H]3C[C@@H]([C@@H](C(C)C)N4CC5(CCN(c6ncnnc6Oc6ccc(F)cc6-c6cncnc6C6CC6)C5)C4)C3)C2)C1` (single isomer, unassigned) [Compound 53], for which the IC50 in the assay with MOLM14 cells (Homo sapiens, MOLM-14, 192 h) is 5 nM; in the assay with KO-52 cells (Homo sapiens, 192 h) it was 9280 nM; in assay [1], 0.2 nM.

For the molecule `CC(=O)N1CCC2C1CCN2[C@H]1C[C@@H]([C@@H](C(C)C)N2CC3(CCN(c4ncnnc4Oc4ccc(F)cc4-c4cncnc4C4CC4)C3)C2)C1` (single isomer, unassigned) [Compound 54], the IC50 in the assay with MOLM14 cells came to 28 nM; in the assay on KO-52 cells (Homo sapiens, 192 h) it was 4960 nM; in assay [1], 0.3 nM.

As for `CC(=O)N1CCC2C1CCN2[C@H]1C[C@@H]([C@@H](C(C)C)N2CC3(CCN(c4ncnnc4Oc4ccc(F)cc4-c4cncnc4C4CC4)C3)C2)C1` (single isomer, unassigned) [Compound 55], the IC50 in the assay on MOLM14 cells is 95 nM; in the assay with KO-52 cells it was 6430 nM; in assay [1] it was 0.5 nM.

As to `CC(=O)N1CC2(CCCN2[C@H]2C[C@@H]([C@@H](C(C)C)N3CC4(CCN(c5ncnnc5Oc5ccc(F)cc5-c5cncnc5C5CC5)C4)C3)C2)C1` (single isomer, unassigned) [Compound 56], the 50% inhibitory concentration (IC50) with MOLM14 cells (Homo sapiens, MOLM-14, 192 h) is 350 nM; with KO-52 cells (Homo sapiens, 192 h), above 15000 nM; in assay [1], 0.4 nM.

Consider `CC(=O)N1CCC2CN([C@H]3C[C@@H]([C@@H](C(C)C)N4CC5(CCN(c6ncnnc6Oc6ccc(F)cc6-c6cncnc6C6CC6)C5)C4)C3)CC21` (single isomer, unassigned) [Compound 57], for which the IC50 in the assay on MOLM14 cells turned out to be 8 nM; in the assay with KO-52 cells (Homo sapiens, 192 h) it was 7540 nM; in assay [1], 0.1 nM.

With `CC(=O)N1CCC2CN([C@H]3C[C@@H]([C@@H](C(C)C)N4CC5(CCN(c6ncnnc6Oc6ccc(F)cc6-c6cncnc6C6CC6)C5)C4)C3)CC21` (single isomer, unassigned) [Compound 58], the IC50 in the assay on MOLM14 cells was 19 nM; in the assay with KO-52 cells it was above 15000 nM; in assay [1] it was 0.1 nM.

As for `CC(=O)N1CC[C@@]12CCN([C@H]1C[C@@H]([C@@H](C(C)C)N3CC4(CCN(c5ncnnc5Oc5ccc(F)cc5-c5cncnc5C5CC5)C4)C3)C1)C2` (single isomer, unassigned) [Compound 59], the IC50 was 24 nM in the assay with MOLM14 cells (Homo sapiens, MOLM-14, 192 h); 5010 nM in the assay with KO-52 cells (Homo sapiens, 192 h); 0.1 nM in assay [1].

With `CC(=O)N1CC[C@]12CCN([C@H]1C[C@@H]([C@@H](C(C)C)N3CC4(CCN(c5ncnnc5Oc5ccc(F)cc5-c5cncnc5C5CC5)C4)C3)C1)C2` (single isomer, unassigned) [Compound 60], the IC50 in the assay on MOLM14 cells (Homo sapiens, MOLM-14, 192 h) amounted to 7 nM; in the assay on KO-52 cells (Homo sapiens, 192 h) it was 3370 nM; in assay [1], 0.2 nM.

On to `CC(C)[C@H]([C@H]1C[C@@H](N2CCC(C)(C(=O)N(C)C)CC2)C1)N1CC2(CCN(c3ncnnc3Oc3ccc(F)cc3-c3cncnc3C3CC3)C2)C1` (single isomer, unassigned) [Compound 62], for which the IC50 amounted to 4 nM with MOLM14 cells (Homo sapiens, MOLM-14, 192 h); 6260 nM with KO-52 cells (Homo sapiens, 192 h); 0.1 nM in assay [1].

Consider `CC(=O)N1CC2CN([C@H]3C[C@@H]([C@@H](C(C)C)N4CC5(CCN(c6ncnnc6Oc6ccc(F)cc6-c6cncnc6C6CC6)C5)C4)C3)CC2C1` (single isomer, unassigned) [Compound 64], for which the IC50 with MOLM14 cells (Homo sapiens, MOLM-14, 192 h) was 2 nM; with KO-52 cells (Homo sapiens, 192 h), above 15000 nM; in assay [1], 0.1 nM.

Turning to `CC(=O)N1CC2CN([C@H]3C[C@H]([C@@H](C(C)C)N4CC5(CCN(c6ncnnc6Oc6ccc(F)cc6-c6cncnc6C6CC6)C5)C4)C3)CC2C1` (single isomer, unassigned) [Compound 65], the IC50 was determined as 130 nM with MOLM14 cells (Homo sapiens, MOLM-14, 192 h); 11800 nM in the assay with KO-52 cells (Homo sapiens, 192 h); 0.2 nM in assay [1].

Take `CC(C)[C@H]([C@H]1C[C@@H](N2CC[C@@]3(CCN(C)C3=O)C2)C1)N1CC2(CCN(c3ncnnc3Oc3ccc(F)cc3-c3cncnc3C3CC3)C2)C1` (single isomer, unassigned) [Compound 66]: the IC50 in the assay with MOLM14 cells (Homo sapiens, MOLM-14, 192 h) is 6 nM; in the assay on KO-52 cells (Homo sapiens, 192 h), above 15000 nM; in assay [1], 0.1 nM.

As for `CC(C)[C@H]([C@H]1C[C@@H](N2CC[C@]3(CCN(C)C3=O)C2)C1)N1CC2(CCN(c3ncnnc3Oc3ccc(F)cc3-c3cncnc3C3CC3)C2)C1` (single isomer, unassigned) [Compound 67], the half-inhibitory concentration (IC50) in the assay on MOLM14 cells (Homo sapiens, MOLM-14, 192 h) was 7 nM; in the assay on KO-52 cells (Homo sapiens, 192 h), above 15000 nM; in assay [1] it was 0.1 nM.

In the case of `CC(C)[C@H]([C@H]1C[C@@H](N2CC[C@H](C(C)(C)O)C2)C1)N1CC2(CCN(c3ncnnc3Oc3ccc(F)cc3-c3cncnc3C3CC3)C2)C1` (single isomer, unassigned) [Compound 68], the half-maximal inhibitory concentration (IC50) in the assay with MOLM14 cells (Homo sapiens, MOLM-14, 192 h) came to 5 nM; with KO-52 cells (Homo sapiens, 192 h) it was 4410 nM; in assay [1], 0.1 nM.

As to `CC(C)[C@H]([C@H]1C[C@H](N2CC[C@H](C(C)(C)O)C2)C1)N1CC2(CCN(c3ncnnc3Oc3ccc(F)cc3-c3cncnc3C3CC3)C2)C1` (single isomer, unassigned) [Compound 69], the half-inhibitory concentration (IC50) with MOLM14 cells (Homo sapiens, MOLM-14, 192 h) is 39 nM; with KO-52 cells (Homo sapiens, 192 h) it was 14000 nM; in assay [1] it was 0.1 nM.

Regarding `CC(C)[C@H]([C@H]1C[C@@H](N2CC[C@@H](C(C)(C)O)C2)C1)N1CC2(CCN(c3ncnnc3Oc3ccc(F)cc3-c3cncnc3C3CC3)C2)C1` (single isomer, unassigned) [Compound 70], the IC50 in the assay on MOLM14 cells (Homo sapiens, MOLM-14, 192 h) turned out to be 4 nM; in the assay with KO-52 cells (Homo sapiens, 192 h) it was 5150 nM; in assay [1] it was 0.1 nM.

Turning to `CC(C)[C@H]([C@H]1C[C@H](N2CC[C@@H](C(C)(C)O)C2)C1)N1CC2(CCN(c3ncnnc3Oc3ccc(F)cc3-c3cncnc3C3CC3)C2)C1` (single isomer, unassigned) [Compound 71], the IC50 in the assay with MOLM14 cells (Homo sapiens, MOLM-14, 192 h) came out at 60 nM; with KO-52 cells (Homo sapiens, 192 h), 9730 nM; in assay [1] it was 0.1 nM.

Take `CC(C)[C@H]([C@H]1C[C@@H](N2CCC[C@H](O)C2)C1)N1CC2(CCN(c3ncnnc3Oc3ccc(F)cc3-c3cccnc3C3CC3)C2)C1` (single isomer, unassigned) [Compound 78]: the IC50 with MOLM14 cells (Homo sapiens, MOLM-14, 192 h) is 630 nM; with KO-52 cells (Homo sapiens, 192 h), 4640 nM; in assay [1], 2.9 nM.

On to `CC(=O)N1CCN([C@H]2C[C@@H]([C@@H](C(C)C)N3CC4(CCN(c5ncnnc5Oc5ccc(F)cc5-c5ncc(C#N)cc5C5CC5)C4)C3)C2)CC1` (single isomer, unassigned) [Compound 79], for which the IC50 in the assay on MOLM14 cells (Homo sapiens, MOLM-14, 192 h) came to 240 nM; in the assay on KO-52 cells (Homo sapiens, 192 h), 3660 nM; in assay [1], 0.3 nM.

Regarding `CC(=O)N1CCN([C@H]2C[C@@H]([C@@H](C(C)C)N3CC4(CCN(c5ncnnc5Oc5ccc(F)cc5-c5cnncc5C5CC5)C4)C3)C2)CC1` (single isomer, unassigned) [Compound 80], the IC50 was above 940 nM in the assay with MOLM14 cells (Homo sapiens, MOLM-14, 192 h); above 15000 nM in the assay on KO-52 cells (Homo sapiens, 192 h); 43.2 nM in assay [1].

For `CO[C@H]1CCN([C@H]2C[C@@H]([C@@H](C(C)C)N3CC4(CCN(c5ncnnc5Oc5ccc(F)cc5-c5cnncc5C5CC5)C4)C3)C2)C1` (single isomer, unassigned) [Compound 81], the IC50 in the assay with MOLM14 cells (Homo sapiens, MOLM-14, 192 h) was 280 nM; with KO-52 cells (Homo sapiens, 192 h) it was above 15000 nM; in assay [1], 2 nM.

In the case of `CC(C)[C@H]([C@H]1C[C@@H](N2CC3(COC3)C2)C1)N1CC2(CCN(c3ncnnc3Oc3ccc(F)cc3-c3cnncc3C3CC3)C2)C1` (single isomer, unassigned) [Compound 82], the IC50 was 300 nM in the assay on MOLM14 cells (Homo sapiens, MOLM-14, 192 h); above 15000 nM in the assay with KO-52 cells (Homo sapiens, 192 h); 0.4 nM in assay [1].

For the molecule `CC(C)[C@H]([C@H]1C[C@H](N2CC3(COC3)C2)C1)N1CC2(CCN(c3ncnnc3Oc3ccc(F)cc3-c3cnncc3C3CC3)C2)C1` (single isomer, unassigned) [Compound 83], the IC50 in the assay with MOLM14 cells (Homo sapiens, MOLM-14, 192 h) is 980 nM; in the assay on KO-52 cells (Homo sapiens, 192 h), above 15000 nM; in assay [1], 1.6 nM.

By IC50 is commonly meant the concentration that gives 50% inhibition.
